Results: ChEMBL document CHEMBL1141597, “2-Alkyl-4-aryl-pyrimidine fused heterocycles as selective 5-HT2A antagonists” (Bioorg Med Chem Lett, 2008)
Activity calls are given as the source filed them. The rule behind the calls is not given here.

Legend:
[1] = target: T1, 5-hydroxytryptamine receptor 2A (Homo sapiens, UniProt P28223); assay: Displacement of [3H]ketanserin from human recombinant 5HT2A receptor expressed in mouse NIH3T3 cells; format: cell-based
[2] = target: T2, 5-hydroxytryptamine receptor 2C (Homo sapiens, UniProt P28335); assay: Displacement of [3H]mesulergine from human recombinant 5HT2C receptor expressed in CHO cells; format: cell-based
T2 sequence (P28335 whole entry): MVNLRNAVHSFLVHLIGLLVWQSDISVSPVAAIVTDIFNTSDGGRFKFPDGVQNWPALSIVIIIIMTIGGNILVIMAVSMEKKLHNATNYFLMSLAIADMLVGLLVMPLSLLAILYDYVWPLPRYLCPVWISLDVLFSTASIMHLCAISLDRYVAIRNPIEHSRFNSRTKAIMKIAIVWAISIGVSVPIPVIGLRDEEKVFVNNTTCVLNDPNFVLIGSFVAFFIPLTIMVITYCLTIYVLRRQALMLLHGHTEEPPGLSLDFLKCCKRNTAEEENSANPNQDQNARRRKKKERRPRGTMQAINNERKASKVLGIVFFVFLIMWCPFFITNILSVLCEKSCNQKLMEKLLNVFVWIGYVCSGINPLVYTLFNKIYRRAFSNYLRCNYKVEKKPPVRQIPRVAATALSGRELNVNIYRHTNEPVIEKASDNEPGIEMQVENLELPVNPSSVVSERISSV

[3] = target: T3, 5-hydroxytryptamine receptor 2B (Homo sapiens, UniProt P41595); assay: Displacement of [3H]mesulergine from human recombinant 5HT2B receptor expressed in CHO cells; format: cell-based
T3 sequence (P41595 whole entry): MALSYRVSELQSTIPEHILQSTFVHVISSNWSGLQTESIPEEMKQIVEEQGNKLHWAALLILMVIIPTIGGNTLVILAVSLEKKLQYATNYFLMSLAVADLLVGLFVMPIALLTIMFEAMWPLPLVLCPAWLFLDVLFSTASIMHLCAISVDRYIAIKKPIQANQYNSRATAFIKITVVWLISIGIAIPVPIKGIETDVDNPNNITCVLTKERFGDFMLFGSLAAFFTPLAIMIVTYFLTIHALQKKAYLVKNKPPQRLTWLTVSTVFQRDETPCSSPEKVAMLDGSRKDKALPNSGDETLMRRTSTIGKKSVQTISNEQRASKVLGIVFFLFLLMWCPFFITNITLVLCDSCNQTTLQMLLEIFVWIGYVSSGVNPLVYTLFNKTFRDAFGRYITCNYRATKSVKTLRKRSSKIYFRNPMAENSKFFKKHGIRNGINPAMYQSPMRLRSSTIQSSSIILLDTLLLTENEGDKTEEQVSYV

[4] = target: T3, 5-hydroxytryptamine receptor 2B; assay: Antagonist activity at human recombinant 5HT2B receptor expressed in CHO cells assessed as increase in calcium levels; format: functional, cell-based
[5] = target: T1, 5-hydroxytryptamine receptor 2A; conditions: NIH3T3
Description: Antagonist activity at human recombinant 5HT2A receptor expressed in mouse NIH3T3 cells assessed as increase in calcium levels

[6] = target: T3, 5-hydroxytryptamine receptor 2B; assay: Binding affinity at 5HT2B receptor
[7] = target: T1, 5-hydroxytryptamine receptor 2A; assay: Binding affinity at 5HT2A receptor
[8] = target: T2, 5-hydroxytryptamine receptor 2C; assay: Binding affinity at 5HT2C receptor

T1 sequence (P28223 whole entry): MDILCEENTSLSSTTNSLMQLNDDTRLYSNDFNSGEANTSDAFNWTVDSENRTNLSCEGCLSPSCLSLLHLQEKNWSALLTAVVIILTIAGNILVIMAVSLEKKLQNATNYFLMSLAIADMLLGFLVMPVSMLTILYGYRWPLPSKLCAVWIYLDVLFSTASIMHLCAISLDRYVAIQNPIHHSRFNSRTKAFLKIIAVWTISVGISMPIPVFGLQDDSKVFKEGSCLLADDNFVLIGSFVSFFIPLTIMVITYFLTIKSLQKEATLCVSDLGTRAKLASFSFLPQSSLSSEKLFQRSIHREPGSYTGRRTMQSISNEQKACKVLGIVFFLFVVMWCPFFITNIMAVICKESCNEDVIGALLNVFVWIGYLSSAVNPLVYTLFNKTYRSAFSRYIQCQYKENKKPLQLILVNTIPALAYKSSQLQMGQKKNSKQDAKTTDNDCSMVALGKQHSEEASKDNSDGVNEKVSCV

Structure (SMILES)	Ki [1]	Ki [2]	Ki [3]	also measured
CC(C)c1nc2c(c(-c3ccc(F)cc3)n1)CCNCC2	0.004 µM	–	–	–
Cc1nc2c(c(-c3ccc(Cl)cc3)n1)CCNCC2	1.2 µM	5 µM	0.27 µM	–
Fc1ccc(-c2nc(C3CCCC3)nc3c2CCNCC3)cc1	0.013 µM	–	–	–
Fc1ccc(-c2nc(Cc3ccccc3)nc3c2CCNCC3)cc1	0.0006 µM	–	–	–
Fc1ccc(-c2nc(Cc3ccccc3)nc3c2CNCCC3)cc1	–	5 µM	10 µM	–
COc1cccc(C(O)C2CCN(CCc3ccc(F)cc3)CC2)c1OC (single isomer, unassigned)	–	–	–	Activity [4]: inactive
Cc1ccc(-c2nc(C3CCCC3)nc3c2CCNCC3)cc1	–	0.023 µM	–	–
Cc1ccc(-c2nc(Cc3ccccc3)nc3c2CCNCC3)cc1	0.0004 µM	0.015 µM	–	–
Fc1ccc(-c2nc(C3CCCC3)nc3c2CNCC3)cc1	0.0022 µM	0.11 µM	0.22 µM	Activity [4]: inactive; pKb [5]: 8.1
CCN(CC)c1nc2c(c(-c3ccc(C)cc3)n1)CNCC2	–	–	–	Ki [6]: 0.07 µM; Ki [7]: 0.02 µM; Ki [8]: 0.3 µM
Fc1ccc(Cc2nc3c(c(-c4ccc(F)cc4)n2)CCNCC3)cc1	0.0007 µM	–	–	Activity [4]: inactive; pKb [5]: 8.2
Fc1ccc(-c2nc(Cc3ccccc3)nc3c2CNCC3)cc1	0.02 µM	0.4 µM	2.5 µM	–
COc1ccc(-c2nc(C3CCCC3)nc3c2CCNCC3)cc1	0.011 µM	0.12 µM	0.0048 µM	–
Cc1nc2n(c(=O)c1CCN1CCC(c3noc4cc(F)ccc34)CC1)CCCC2	–	–	–	Activity [4]: inactive
Cc1nc2sccn2c(=O)c1CCN1CCC(=C(c2ccc(F)cc2)c2ccc(F)cc2)CC1	–	–	–	Activity [4]: inactive
CN(C)CCO/N=C(/C=C/c1ccc(O)cc1)c1ccccc1F	–	–	–	Activity [4]: inactive
Fc1ccc(-c2nc(C3CCC3)nc3c2CNCC3)cc1	0.011 µM	0.41 µM	0.21 µM	–
FC(F)(F)c1ccc(-c2nc(Cc3ccccc3)nc3c2CCNCC3)cc1	0.0008 µM	–	–	–
Fc1ccc(-c2nc(Cc3ccccc3)nc3c2CCNC3)cc1	0.009 µM	–	0.31 µM	–
N#Cc1ccc(-c2nc(C3CCCC3)nc3c2CCNCC3)cc1	0.034 µM	0.46 µM	0.02 µM	–
Fc1ccc(-c2nc(Cc3ccccc3)nc3c2CCCNC3)cc1	0.0088 µM	0.15 µM	–	–
Fc1ccc(-c2nc(C3CC3)nc3c2CNCC3)cc1	0.04 µM	5 µM	–	–
Fc1ccc(-c2nc(-c3ccccc3)nc3c2CNCC3)cc1	0.05 µM	–	–	–
CC(C)(C)c1nc2c(c(-c3ccc(F)cc3)n1)CNCC2	0.005 µM	0.1 µM	–	–
Fc1ccc(Cc2nc3c(c(-c4ccc(F)cc4)n2)CNCC3)cc1	0.013 µM	–	–	Activity [4]: inactive; pKb [5]: 7.1
